Test results: patent US9226916B2, “Pyrrolidine derivatives” (HOFFMANN-LA ROCHE INC., priority 2009, dated 2016)

Biological target: T1, recombinant human NK3 receptor (Homo sapiens, UniProt P29371)
T1 construct: expressed in transfected cells; host or cells: HEK293 cells, transient expression; membranes
T1 sequence (P29371 1-465): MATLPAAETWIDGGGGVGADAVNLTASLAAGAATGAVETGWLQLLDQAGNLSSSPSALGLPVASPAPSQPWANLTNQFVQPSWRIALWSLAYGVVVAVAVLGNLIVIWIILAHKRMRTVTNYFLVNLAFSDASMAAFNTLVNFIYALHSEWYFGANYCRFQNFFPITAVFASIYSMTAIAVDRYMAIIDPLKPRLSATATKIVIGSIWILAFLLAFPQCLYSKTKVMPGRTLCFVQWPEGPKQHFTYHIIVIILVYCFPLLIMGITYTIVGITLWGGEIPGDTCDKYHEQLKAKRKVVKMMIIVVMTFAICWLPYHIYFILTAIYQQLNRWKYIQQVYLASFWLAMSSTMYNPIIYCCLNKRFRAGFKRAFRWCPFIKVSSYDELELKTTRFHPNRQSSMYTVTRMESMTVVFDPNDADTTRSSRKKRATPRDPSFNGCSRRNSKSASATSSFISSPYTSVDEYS
Assay: [3H]SR142801 competition binding assay
Conditions: not given

Row | SMILES | Ki
1 | CN(C(=O)Oc1ccc(F)cc1)[C@@H]1CN(C(=O)C2CCN(C(=O)C3CC3(F)F)CC2)C[C@H]1c1ccc(Cl)c(Cl)c1 (stereo partly drawn) [Example 274, {(3S,4R)-4-(3,4-Dichloro-phenyl)-1-[1-(2,2-difluoro-cyclopropanecarbonyl)-piperidine-4-carbonyl]-pyrrolidin-3-yl}-methyl-carbamic acid 4-fluoro-phenyl ester] | 0.9 nM
2 | COc1ccc(OC(=O)N(C)[C@@H]2CN(C(=O)C3CCN(c4ccc(C#N)cn4)CC3)C[C@H]2c2ccc(Cl)cc2)cc1 [Example 201, [(3S,4R)-4-(4-Chloro-phenyl)-1-(5′-cyano-3,4,5,6-tetrahydro-2H-[1,2′]bipyridinyl-4-carbonyl)-pyrrolidin-3-yl]-methyl-carbamic acid 4-methoxy-phenyl ester] | 3.3 nM
3 | CN(C(=O)Oc1ccc(F)cc1)[C@@H]1CN(C(=O)C2CCN(c3ccc(Cl)cn3)CC2)C[C@H]1c1ccc(Cl)c(F)c1 [Example 312, [(3S,4R)-4-(4-Chloro-3-fluoro-phenyl)-1-(5′-chloro-3,4,5,6-tetrahydro-2H-[1,2′]bipyridinyl-4-carbonyl)-pyrrolidin-3-yl]-methyl-carbamic acid 4-fluoro-phenyl ester] | 0.4 nM
4 | CN(C(=O)Oc1ccc(F)cc1)[C@@H]1CN(C(=O)C2CCN(C(=O)C3CCC3)CC2)C[C@H]1c1ccc(Cl)c(Cl)c1 [Example 265, [(3S,4R)-1-(1-Cyclobutanecarbonyl-piperidine-4-carbonyl)-4-(3,4-dichloro-phenyl)-pyrrolidin-3-yl]-methyl-carbamic acid 4-fluoro-phenyl ester] | 0.6 nM
5 | CN(C(=O)Oc1ccc(F)cc1)[C@@H]1CN(C(=O)C2CCN(C(=O)C3CC3(F)F)CC2)C[C@H]1c1ccc(Cl)cc1 (stereo partly drawn) [Example 256, {(3S,4R)-4-(4-Chloro-phenyl)-1-[1-(2,2-difluoro-cyclopropanecarbonyl)-piperidine-4-carbonyl]-pyrrolidin-3-yl}-methyl-carbamic acid 4-fluoro-phenyl ester] | 2.6 nM
6 | CC1CC1COC(=O)N(C)[C@H]1CN(C(=O)C2CCN(C(=O)C3(C)CC3)CC2)C[C@@H]1c1ccc(Cl)c(Cl)c1 (mixture of isomers) [Example 92, rac-{(3R,4S)-4-(3,4-Dichloro-phenyl)-1-[1-(1-methyl-cyclopropanecarbonyl)-piperidine-4-carbonyl]-pyrrolidin-3-yl}-methyl-carbamic acid 2-methyl-cyclopropylmethyl ester] | 2.3 nM
7 | CN(C(=O)Oc1ccc(F)cc1)[C@@H]1CN(C(=O)C2CCN(c3ccc(Cl)cn3)CC2)C[C@H]1c1ccc(Cl)c(Cl)c1 [Example 308, [(3S,4R)-1-(5′-Chloro-3,4,5,6-tetrahydro-2H-[1,2′]bipyridinyl-4-carbonyl)-4-(3,4-dichloro-phenyl)-pyrrolidin-3-yl]-methyl-carbamic acid 4-fluoro-phenyl ester] | 0.2 nM
8 | CN(C(=O)Oc1ccc(F)cc1)[C@H]1CN(C(=O)C2CCN(c3ccc(C#N)cn3)CC2)C[C@@H]1c1ccc(F)cc1 [Example 132, [(3R,4S)-1-(5′-Cyano-3,4,5,6-tetrahydro-2H-[1,2′]bipyridinyl-4-carbonyl)-4-(4-fluoro-phenyl)-pyrrolidin-3-yl]-methyl-carbamic acid 4-fluoro-phenyl ester] | 55.6 nM
9 | CN(C(=O)Oc1ccc(F)cc1)[C@@H]1CN(C(=O)C2CCN(c3ccncn3)CC2)C[C@H]1c1ccc(Cl)cc1 [Example 191, [(3S,4R)-4-(4-Chloro-phenyl)-1-(1-pyrimidin-4-yl-piperidine-4-carbonyl)-pyrrolidin-3-yl]-methyl-carbamic acid 4-fluoro-phenyl ester] | 1.2 nM
10 | CN(C(=O)OC1CC(F)(F)C1(F)F)[C@@H]1CN(C(=O)C2CCN(C(=O)C3(C)CC3)CC2)C[C@H]1c1ccc(Cl)cc1 (stereo partly drawn) [Example 175, {(3S,4R)-4-(4-Chloro-phenyl)-1-[1-(1-methyl-cyclopropanecarbonyl)-piperidine-4-carbonyl]-pyrrolidin-3-yl}-methyl-carbamic acid 2,2,3,3-tetrafluorocyclobutyl ester] | 36 nM
11 | CN(C(=O)Oc1ccc(F)cc1)[C@@H]1CN(C(=O)C2CCC(CO)CC2)C[C@H]1c1ccc(Cl)cc1 (stereo partly drawn) [Example 116, [(3S,4R)-4-(4-Chloro-phenyl)-1-(4-hydroxymethyl-cyclohexanecarbonyl)-pyrrolidin-3-yl]-methyl-carbamic acid 4-fluoro-phenyl ester] | 10 nM
12 | CN(C(=O)Oc1ccc(F)cc1)[C@@H]1CN(C(=O)C2CCN(c3ccc(C(N)=O)cn3)CC2)C[C@H]1c1ccc(Cl)c(Cl)c1 [Example 310, [(3S,4R)-1-(5′-Carbamoyl-3,4,5,6-tetrahydro-2H-[1,2′]bipyridinyl-4-carbonyl)-4-(3,4-dichloro-phenyl)-pyrrolidin-3-yl]-methyl-carbamic acid 4-fluoro-phenyl ester] | 0.6 nM
13 | CN(C(=O)Oc1ccc(F)cc1)[C@@H]1CN(C(=O)C2CCN(C(=O)C3(C(F)(F)F)CCC3)CC2)C[C@H]1c1ccc(F)cc1 [Example 289, {(3S,4R)-4-(4-Fluoro-phenyl)-1-[1-(1-trifluoromethyl-cyclobutanecarbonyl)-piperidine-4-carbonyl]-pyrrolidin-3-yl}-methyl-carbamic acid 4-fluoro-phenyl ester] | 11 nM
14 | CN(C(=O)Oc1ccc(F)cc1)[C@H]1CN(C(=O)C2CCN(CC3CC3)CC2)C[C@@H]1c1ccc(Cl)c(Cl)c1 (racemic) [Example 4, rac-[(3R,4S)-1-(1-Cyclopropylmethyl-piperidine-4-carbonyl)-4-(3,4-dichloro-phenyl)-pyrrolidin-3-yl]-methyl-carbamic acid 4-fluoro-phenyl ester] | 1.8 nM
15 | CN(C(=O)Oc1ccc(F)cc1)[C@@H]1CN(C(=O)C2CCN(C(=O)C3CC(F)C3)CC2)C[C@H]1c1ccc(Cl)cc1 (stereo partly drawn) [Example 249, {(3S,4R)-4-(4-Chloro-phenyl)-1-[1-(3-fluoro-cyclobutanecarbonyl)-piperidine-4-carbonyl]-pyrrolidin-3-yl}-methyl-carbamic acid 4-fluoro-phenyl ester] | 1.9 nM
16 | CN(C(=O)Oc1ccc(F)cc1)[C@@H]1CN(C(=O)C2CCN(C(=O)OC(C)(C)C)CC2)C[C@H]1c1ccc(Cl)cc1 [Example 133, 4-{(3R,4S)-3-(4-Chloro-phenyl)-4-[(4-fluoro-phenoxycarbonyl)-methyl-amino]-pyrrolidine-1-carbonyl}-piperidine-1-carboxylic acid tert-butyl ester] | 3 nM
17 | CN(C(=O)OCC1CC1)[C@H]1CN(C(=O)C2CCN(C(=O)C3(C)CC3)CC2)C[C@@H]1c1ccc(Cl)c(Cl)c1 (racemic) [Example 24, rac-{(3R,4S)-4-(3,4-Dichloro-phenyl)-1-[1-(1-methyl-cyclopropanecarbonyl)-piperidine-4-carbonyl]-pyrrolidin-3-yl}-methyl-carbamic acid cyclopropylmethyl ester] | 33.5 nM
18 | CN(C(=O)Oc1ccc(F)cc1)[C@H]1CN(C(=O)C2CCN(C(=O)C3(C)CC3)CC2)C[C@H]1c1ccc(Cl)c(Cl)c1 (racemic) [Example 40, rac-{(3R,4R)-4-(3,4-Dichloro-phenyl)-1-[1-(1-methyl-cyclopropanecarbonyl)-piperidine-4-carbonyl]-pyrrolidin-3-yl}-methyl-carbamic acid 4-fluoro-phenyl ester] | 4.2 nM
19 | CN(C(=O)Oc1ccc(F)cc1)[C@@H]1CN(C(=O)C2CCN(C(=O)C3CCC(=O)NC3)CC2)C[C@H]1c1ccc(Cl)c(Cl)c1 (stereo partly drawn) [Example 281, {(3S,4R)-4-(3,4-Dichloro-phenyl)-1-[1-(6-oxo-piperidine-3-carbonyl)-piperidine-4-carbonyl]-pyrrolidin-3-yl}-methyl-carbamic acid 4-fluoro-phenyl ester] | 0.3 nM

Same assay, conditions: hNK-3 receptor affinity; membranes from HEK293 cells transiently expressing recombinant human NK3 receptor; [3H]SR142801; Cheng-Prussoff; read-out: Data Ki

Row | SMILES | Ki
20 | CN(C(=O)O[C@H]1CC[C@@H](C(F)(F)F)CC1)[C@@H]1CN(C(=O)C2CCN(C(=O)C3(C)CC3)CC2)C[C@H]1c1ccc(Cl)c(Cl)c1 [Example 108, {(3S,4R)-4-(3,4-Dichloro-phenyl)-1-[1-(1-methyl-cyclopropanecarbonyl)-piperidine-4-carbonyl]-pyrrolidin-3-yl}-methyl-carbamic acid 4-trifluoromethyl-cyclohexyl ester] | 0.7 nM
21 | CN(C(=O)OC1CCC(C(F)(F)F)CC1)[C@H]1CN(C(=O)C2CCN(C(=O)C3(C)CC3)CC2)C[C@@H]1c1ccc(Cl)c(Cl)c1 (mixture of isomers) [Example 103, rac-{(3R,4S)-4-(3,4-Dichloro-phenyl)-1-[1-(1-methyl-cyclopropanecarbonyl)-piperidine-4-carbonyl]-pyrrolidin-3-yl}-methyl-carbamic acid 4-trifluoromethyl-cyclohexyl ester] | 1.8 nM
22 | CN(C(=O)O[C@H]1CC[C@H](C(F)(F)F)CC1)[C@@H]1CN(C(=O)C2CCN(c3ccc(C#N)cn3)CC2)C[C@H]1c1ccc(Cl)c(Cl)c1 [Example 159, [(3S,4R)-1-(5′-Cyano-3,4,5,6-tetrahydro-2H-[1,2′]bipyridinyl-4-carbonyl)-4-(3,4-dichloro-phenyl)-pyrrolidin-3-yl]-methyl-carbamic acid 4-trifluoromethyl-cyclohexyl ester] | 0.4 nM
23 | CN(C(=O)OC1CCCCC1)[C@@H]1CN(C(=O)C2CCN(C(=O)C3(C)CC3)CC2)C[C@H]1c1ccc(Cl)cc1 [Example 152, {(3S,4R)-4-(4-Chloro-phenyl)-1-[1-(1-methyl-cyclopropanecarbonyl)-piperidine-4-carbonyl]-pyrrolidin-3-yl}-methyl-carbamic acid cyclohexyl ester] | 14.7 nM
